Results on seven molecules are retold here after patent publication US8518957B2, “Methanocarba adenosine derivatives, pharmaceutical compositions, and method of reducing intraocular pressure” (The United States of America, as represented by the …, priority 2009, dated 2013).

Where two headings read alike, the source gives them in different places.

Assay [1] addresses T1, hA2AAR (Homo sapiens, UniProt P29274).
T1 construct: expressed in transfected cells
As to the kind of experiment: Radioligand binding at human A2A AR ([3H]CGS21680, membranes of HEK-293 cells). The protocol:
(§1) [^3H](2-[p-(2-Carboxyethyl)phenyl-ethylamino]-5′-N-ethylcarboxamido-adenosine) (37, [^3H]CGS21680, 40.5 Ci/mmol) and [^125I]N^6-(4-amino-3-iodobenzyl)adenosine-5′-N-methyluronamide (38, [^125I]I-AB-MECA, 2200 Ci/mmol) were purchased from Perkin-Elmer Life and Analytical Science (Boston, Mass.). Test compounds were prepared as 5 mM stock solutions in DMSO and stored frozen at −20° C.
(§2) CHO cells stably expressing the recombinant hA1 and hA3Rs, and HEK-293 cells stably expressing the hA2AAR were cultured in Dulbecco's modified Eagle medium (DMEM) and F12 (1:1) supplemented with 10% fetal bovine serum, 100 units/mL penicillin, 100 μg/mL streptomycin, and […] glutamine. In addition, 800 μg/mL geneticin was added to the A2A media, while 500 μg/mL hygromycin was added to the A1 and A3 media. After harvesting, cells were homogenized and suspended in PBS. Cells were then centrifuged at 240 g for 5 min, and the pellet was resuspended in 50 mM Tris-HCl buffer (pH 7.5) containing 10 mM MgCl2. The suspension was homogenized and was then ultra-centrifuged at 14,330 g for 30 min at 4° C. The resultant pellets were resuspended in Tris buffer, incubated with adenosine deaminase (3 units/mL) for 30 min at 37° C. The suspension was homogenized with an electric homogenizer for 10 sec, pipetted into 1 mL vials and then stored at −80° C. until the binding experiments were conducted. The protein concentration was measured using the BCA Protein Assay Kit from Pierce Biotechnology, Inc. (Rockford, Ill.).
(§3) Into each tube in the binding assay was added 50 μL of increasing concentrations of the test ligand in Tris-HCl buffer (50 mM, pH 7.5) containing 10 mM MgCl2, 50 μl, of the appropriate agonist radioligand, and finally 100 μL of membrane suspension. For the A1AR (22 μg of protein/tube) the radioligand used was [^3H]36 (final concentration of 3.5 nM). For the A2AAR (20 μg/tube) the radioligand used was [^3H]37 (10 nM). For the A3AR (21 μg/tube) the radioligand used was [^125I]38 (0.34 nM). Nonspecific binding was determined using a final concentration of 10 μM unlabeled 36 diluted with the buffer. The mixtures were incubated at 25° C. for 60 min in a shaking water bath. Binding reactions were terminated by filtration through Brandel GF/B filters under a reduced pressure using a M-24 cell harvester (Brandel, Gaithersburg, Md.). Filters were washed three times with 3 mL of 50 mM ice-cold Tris-HCl buffer (pH 7.5). Filters for A1 and A2AAR binding were placed in scintillation vials containing 5 mL of Hydrofluor scintillation buffer and counted using a Perkin Elmer Liquid Scintillation Analyzer (Tri-Carb 2810TR). Filters for A3AR binding were counted using a Packard Cobra II γ-counter. The Ki values were determined using GraphPad Prism for all assays.
(§4) [^3H](2-[p-(2-carboxyethyl)phenyl-ethylamino]-5′-N-ethylcarboxamido-adenosine) ([^3H]CGS21680, 40.5 Ci/mmol) and [^125I]N^6-(4-amino-3-iodobenzyl)adenosine-5′-N-methyluronamide ([^125I]I-AB-MECA, 2200 Ci/mmol) were purchased from PerkinElmer. Test compounds were prepared as 5-mM stock solutions in DMSO and stored frozen at −20° C.
(§5) Chinese hamster ovary (CHO) cells were generated by stably expressing the recombinant hA1 and hA3 and human embryonic kidney (HEK) 293 cells stably expressing the hA2AAR in DMEM and F12 (1:1) supplemented with 10% fetal bovine serum, 100 units/mL penicillin, 100 μg/mL streptomycin, and 2 μmol/mL glutamine. 800 μg/mL Geneticin were added to the A2A media and 500 μg/mL hygromycin to the A1 and A3 media. After harvesting the cells, they were homogenized with an electric homogenizer for 10 sec, pipetted them into 1-mL vials, and then stored them at −80° C. until the binding experiments were conducted. The protein concentration was measured with a BCA Protein Assay Kit from Pierce Biotechnology (Rockford, Ill.). […]

In assay [2] the target is T2, human A1 AR (Homo sapiens, UniProt P30542).
T2 construct: expressed in transfected cells
T2 sequence (P30542 1-326): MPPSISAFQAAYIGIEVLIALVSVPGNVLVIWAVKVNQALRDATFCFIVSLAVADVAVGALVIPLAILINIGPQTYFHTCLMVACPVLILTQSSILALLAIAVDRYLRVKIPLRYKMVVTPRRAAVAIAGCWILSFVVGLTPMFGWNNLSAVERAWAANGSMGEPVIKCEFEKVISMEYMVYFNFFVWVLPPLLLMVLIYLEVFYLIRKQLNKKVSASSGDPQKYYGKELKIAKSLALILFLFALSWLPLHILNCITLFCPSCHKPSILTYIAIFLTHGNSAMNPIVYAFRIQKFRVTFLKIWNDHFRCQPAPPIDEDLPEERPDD
Kind of assay: Radioligand binding at human A1 AR ([3H]NECA, membranes of CHO cells). As to conditions: for Ki: Example 7, agonist radioligand [3H]45, read-out: AR Affinity Ki, nM, A1. The protocol:
as §1, §2, §3, §4, §5

Assay [3] has as its target T3, human A3AR (Homo sapiens, UniProt P0DMS8).
T3 construct: expressed in transfected cells
T3 sequence (P0DMS8 1-318): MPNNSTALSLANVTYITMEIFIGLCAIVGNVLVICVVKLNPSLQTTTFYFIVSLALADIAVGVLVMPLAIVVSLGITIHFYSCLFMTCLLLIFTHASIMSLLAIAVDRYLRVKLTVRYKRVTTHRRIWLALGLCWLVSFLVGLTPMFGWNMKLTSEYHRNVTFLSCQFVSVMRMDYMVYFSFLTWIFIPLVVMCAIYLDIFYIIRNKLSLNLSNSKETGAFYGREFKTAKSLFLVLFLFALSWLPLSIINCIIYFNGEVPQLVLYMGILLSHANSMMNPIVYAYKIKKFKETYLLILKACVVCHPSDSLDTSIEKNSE
Kind of assay: Radioligand binding at human A3 AR ([125I]I-AB-MECA, membranes of CHO cells). The procedure:
Test compounds were prepared as 5 mM stock solutions in DMSO and stored frozen at −20° C.
as §2
as §3, with “For the A1AR (22 μg of protein/tube) the radioligand used was [^3H]36 (final concentration of 3.5 nM).” left out, “For the A3AR (21 μg/tube) the radioligand used was [^125I]38 (0.34 nM).” left out, “Filters for A1 and A2AAR binding were placed in scintillation vials containing 5 mL of Hydrofluor scintillation buffer and counted using a Perkin Elmer Liquid Scintillation Analyzer (Tri-Carb 2810TR).” left out
Test compounds were prepared as 5-mM stock solutions in DMSO and stored frozen at −20° C.
Chinese hamster ovary (CHO) cells were generated by stably expressing the recombinant hA1 and hA3 and human embryonic kidney (HEK) 293 cells stably expressing the hA2AAR in DMEM and F12 (1:1) supplemented with 10% fetal bovine serum, 100 units/mL penicillin, 100 μg/mL streptomycin, and 2 μmol/mL glutamine. 800 μg/mL Geneticin were added to the A2A media and 500 μg/mL hygromycin to the A1 and A3 media. After harvesting the cells, they were homogenized with an electric homogenizer for 10 sec, pipetted them into 1-mL vials, and then stored them at −80° C. until the binding experiments were conducted. The protein concentration was measured with a BCA Protein Assay Kit from Pierce Biotechnology (Rockford, Ill.).
Each tube in the binding assay contained 50 μL of increasing concentrations of the test ligand in Tris-HCl buffer (50 mM, pH 7.5) containing 10 mM MgCl2, 50 μL of the appropriate agonist radioligand, and 100 μL membrane suspension, added sequentially. […] For the A2AAR (20 μg/tube), the radioligand [^3H]CGS21680 was used (−10 nM). […] The mixtures were incubated at 25° C. for 60 min in a shaking water bath. The binding reactions were terminated by filtration through Brandel GF/B filters under a reduced pressure with a M-24 cell harvester (Brandel, Gaithersburg, Md.). Filters were washed three times with 3 mL 50-mM ice-cold Tris-HCl buffer (pH 7.5). […] The filters were counted for A3AR binding with a Packard Cobra II γ-counter (PerkinElmer). The Ki values were determined with GraphPad Prism for all assays.

Assay [4] concerns the target T1, hA2AAR. To be noted: cited from earlier work.
In assay [5] the target is T3, human A3AR. Kind of assay: Cyclic AMP accumulation assay: inhibition of forskolin-stimulated cyclic AMP production in AR-transfected CHO cells. As to conditions: at 10 μM, in comparison to the maximal effect of full agonist NECA at 10 μM. The class given is cell-based. The procedure:
Intracellular cyclic AMP levels were measured with a competitive protein binding method. […] CHO cells that expressed the recombinant human A3AR were harvested by trypsinization. After centrifugation and resuspended in medium, cells were planted in 24-well plates in 1.0 mL medium. After 24 h, the medium was removed and cells were washed three times with 1 mL DMEM, containing 50 mM HEPES, pH 7.4. […] After 45 min forskolin (10 μM) was added to the medium, and incubation was continued for an additional 15 min. […] The cell lysate was resuspended and stored at −20° C. For determination of cyclic AMP production, protein kinase A (PKA) was incubated with [^3H]cyclic AMP (2 nM) in K2HPO4/EDTA buffer (K2HPO4, 150 mM; EDTA, 10 mM), 20 μL of the cell lysate, and 30 μL 0.1 M HCl or 50 μL of cyclic AMP solution (0-16 pmol/200 μL for standard curve). Bound radioactivity was separated by rapid filtration through Whatman GF/C filters and washed once with cold buffer. Bound radioactivity was measured by liquid scintillation spectrometry.
Bound radioactivity was separated by rapid filtration through Whatman GF/C filters and washed the filters once with cold buffer. Bound radioactivity was measured with liquid scintillation spectrometry.

Assay [6] concerns the target T2, human A1 AR. As to conditions: inhibition of radioligand binding at 10 μM; values from Tosh et al.; cited from earlier work.
For assay [7], the target named is T3, human A3AR. As to conditions: at 10 μM, relative to NECA 10 μM; values from Tosh et al.; cited from earlier work.
The mark [8] stands for this setting: Example 7, agonist radioligand [125I]47, read-out: AR Affinity Ki, nM, A3.

T1 sequence (P29274 whole entry): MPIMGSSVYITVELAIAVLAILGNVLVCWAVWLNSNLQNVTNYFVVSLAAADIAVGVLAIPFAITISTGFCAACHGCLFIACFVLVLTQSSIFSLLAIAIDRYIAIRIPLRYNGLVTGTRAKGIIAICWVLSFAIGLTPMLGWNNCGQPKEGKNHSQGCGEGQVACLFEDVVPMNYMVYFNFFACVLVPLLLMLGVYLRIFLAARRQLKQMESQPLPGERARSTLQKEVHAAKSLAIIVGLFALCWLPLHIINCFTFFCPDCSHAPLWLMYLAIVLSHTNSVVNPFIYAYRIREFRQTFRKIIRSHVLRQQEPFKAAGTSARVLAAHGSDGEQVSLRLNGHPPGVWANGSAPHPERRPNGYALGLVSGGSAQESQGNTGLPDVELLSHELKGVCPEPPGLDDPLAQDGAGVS

Turning to `C#CCCCC#Cc1cccc(CNc2nc(Cl)nc3c2ncn3[C@H]2[C@H](O)[C@H](O)[C@]3(C(=O)NC)C[C@H]23)c1` [Compound 200, (1S,2R,3S,4R,5S)-4-[2-Chloro-6-{3-(1,6-heptadiynylbenzylamino)}-9H-purin—9-yl]-2,3-dihydroxybicyclo[3.1.0]hexane-1-carboxylic acid N-methylamide], the Ki (usually a dissociation constant, usually derived from enzyme kinetics or from competition with a known ligand) at hA2AAR [1] (Example 7, agonist radioligand [3H]46, HEK293, read-out: AR Affinity Ki, nM, A2A) was determined as 4950 ± 960 nM; on human A1 AR [2] it was 104 ± 24 nM; at human A3AR [3] (setting [8]), 8.1 ± 3.1 nM.

With `CCCC#Cc1nc(NCc2cccc(Cl)c2)c2ncn(C3C(O)C(O)C4(C(=O)NC)CC34)c2n1` (stereo not shown) [Compound 104b], the “% inhibition, A2A” value on hA2AAR [4] (at 10 μM, model compounds, values from Tosh et al. and Melman et al.) is “(80%)”.

With `O=[N+]([O-])c1cc(-n2cc(CNc3nc(Cl)nc4c3ncn4[C@H]3[C@H](O)[C@H](O)[C@@H]4C[C@@H]43)nn2)ccc1F` [Compound 223], the figures for the inhibition at 10 µM at hA2AAR [1] and at human A1 AR [2] were 19.2% and 44.7%, respectively. Moreover, the Ki at human A3AR [3] (setting [8]) was determined as 388 ± 170 nM.

In the case of `CNC(=O)[C@@]12C[C@@H]1[C@@H](n1cnc3c(NCc4cccc(C#CCCCCc5cn(C67CC8CC(CC(C8)C6)C7)nn5)c4)nc(Cl)nc31)[C@H](O)[C@@H]2O` [Compound 206, (1S,2R,3S,4R,5S)-4-(2-Chloro-6-(3-(6-(1-(adamantyl)-1H-1,2,3-triazol-4-yl)hex-1-ynyl)benzylamino)-9H-purin-9-yl)-2,3-dihydroxybicyclo[3.1.0]hexane-1-carboxylic acid-N-methylamide], at 10 µM the inhibition on hA2AAR [1] was 17%. Moreover, the Ki came to 1720 ± 240 nM at human A1 AR [2] and 21.8 ± 5.3 nM on human A3AR [3] (setting [8]).

In the case of `C#CCCCC#Cc1nc(NCc2cccc(Cl)c2)c2ncn(C3C(O)C(O)C4(C(=O)NC)CC34)c2n1` (stereo not drawn) [Compound 8, (1′S, 2′R, 3′S, 4′S, 5′S)-4′-[6-(3-Chlorobenzylamino)-2-(1,6-heptadiynyl)-9H-purin-9-yl]-2′,3′-dihydroxybicyclo[3.1.0]hexane-1′-carboxylic acid N-methylamide], the “% Inhibition of cAMP formation at hA3 AR” value on human A3AR [5] is on record as 18.3 ± 7.6%. Also, the Ki on hA2AAR [1] ([3H]37, HEK293 cells, read-out: Affinity (Ki, nM), A2A) worked out at 4330 ± 500 nM; at human A3AR [3] ([125I]38, CHO cells, read-out: Affinity (Ki, nM), A3) it was 23.6 ± 3.9 nM.

Consider `CNC(=O)C12CC1C(n1cnc3c(NCc4cccc(Cl)c4)nc(C#CCCC(=O)NCCNC(=O)CCCCC4SCC5NC(=O)NC54)nc31)C(O)C2O` (stereo not shown) [Compound 2], for which the “% inhibition, A1” value on human A1 AR [6] was “(1 ± 1%)”. Besides, at human A3AR [7], the “% Inhibition of cAMP formation at hA3 AR” value is 84.5 ± 12.0%. Moreover, the “% inhibition, A2A” value at hA2AAR [4] (inhibition of radioligand binding at 10 μM, values from Tosh et al.) is given as “(51 ± 2%)”.

As for `O=[N+]([O-])c1cc(-n2cc(CCCCCC#Cc3cccc(CNc4nc(Cl)nc5c4ncn5[C@H]4[C@H](O)[C@H](O)[C@@H]5C[C@@H]54)c3)nn2)ccc1F` [Compound 216, (1R,2R,3S,4R,5S)-4-(2-Chloro-6-(3-(7-(1-(4-fluoro-3-nitrophenyl)-1H-1,2,3-triazol-4-yl)hept-1-ynyl)benzylamino)-9H-purin-9-yl)bicyclo[3.1.0]hexane-2,3-diol], the inhibition – broadly, the share of the control response that was lost under treatment – at 10 µM amounted to 18% on hA2AAR [1] and 29.5% on human A1 AR [2]. On human A3AR [3] (setting [8]), the Ki came to 521 ± 250 nM.
